According to ChEMBL document CHEMBL1149557, “Induction of GRP78 by valproic acid is dependent upon histone deacetylase inhibition” (2007):
Calls of active or inactive are those of the source. The rule behind the calls is not given here.

Columns and labels:
HEK293 [1] = test: Increase in protein disulfide isomerase level in HEK293 cells at 2 mM by immunoblot; format: functional, cell-based; conditions: Homo sapiens
[2] = biological target: Glycogen synthase kinase-3 beta (Homo sapiens) (UniProt P49841); test: Inhibition of GSK3-beta at 2 mM relative to control
[3] = biological target: T1, Histone deacetylase (Homo sapiens) (UniProt Q13547+O15379+Q9UBN7+Q92769+Q9UQL6+Q8WUI4+Q9BY41+Q96DB2+P56524+Q9UKV0+Q969S8); test: Inhibition of HDAC in HEK293 cells assessed as increase in histone H4 acetylation at 2 mM after 48 hrs; format: cell-based
HEK293 [4] = test: Increase in GRP78 protein level in HEK293 cells at 2 mM by immunoblot; format: functional, cell-based; conditions: Homo sapiens
HEK293 [5] = test: Increase in protein disulfide isomerase level in HEK293 cells at 10 ug/ml by immunoblot; format: functional, cell-based; conditions: Homo sapiens
HEK293 [6] = test: Increase in GRP78 protein level in HEK293 cells at 10 ug/mL by immunoblot; format: functional, cell-based; conditions: Homo sapiens
HEK293 [7] = test: Induction of GADD153/CHOP protein level in HEK293 cells by immunoblot; format: functional, cell-based; conditions: Homo sapiens
HEK293 [8] = test: Increase in GRP78 protein level in HEK293 cells at 600 nM by immunoblot; format: functional, cell-based; conditions: Homo sapiens
HEK293 [9] = test: Increase in protein disulfide isomerase level in HEK293 cells at 600 nM by immunoblot; format: functional, cell-based; conditions: Homo sapiens
HEK293 [10] = test: (§1) Increase in GRP78 protein level in HEK293 cells at 1 mM by immunoblot; format: functional, cell-based; conditions: Homo sapiens
HEK293 [11] = test: as §1; format: functional, Homo sapiens
HEK293 [12] = test: Increase in protein disulfide isomerase level in HEK293 cells at 1 mM by immunoblot; format: functional, cell-based; conditions: Homo sapiens
[13] = biological target: T1, Histone deacetylase (Homo sapiens); test: Inhibition of HDAC in HEK293 cells assessed as increase in histone H4 acetylation at 1 mM after 48 hrs relative to control; format: cell-based

Sequence of Glycogen synthase kinase-3 beta (Homo sapiens) (P49841 whole entry, looked up): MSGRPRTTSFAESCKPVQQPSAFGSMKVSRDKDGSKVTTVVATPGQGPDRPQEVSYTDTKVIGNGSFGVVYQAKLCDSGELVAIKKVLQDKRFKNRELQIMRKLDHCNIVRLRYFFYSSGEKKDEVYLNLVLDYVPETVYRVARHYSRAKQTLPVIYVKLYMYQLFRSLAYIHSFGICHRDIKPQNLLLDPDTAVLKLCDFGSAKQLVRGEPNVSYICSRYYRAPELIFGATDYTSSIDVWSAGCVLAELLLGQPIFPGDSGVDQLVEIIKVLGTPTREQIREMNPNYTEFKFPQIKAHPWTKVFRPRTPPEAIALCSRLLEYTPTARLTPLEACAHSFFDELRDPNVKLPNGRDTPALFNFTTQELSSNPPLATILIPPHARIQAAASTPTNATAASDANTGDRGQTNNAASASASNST

## CC/C=C(\CCC)C(=O)O
HEK293 [1]
  Activity: Active
[2]
  inhibition: 91.3%
[3]
  Activity: Active
HEK293 [4]
  Activity: Active

## CC(=O)N[C@H]1[C@@H](O[C@@H]2O[C@H](CC(O)[C@H]3O[C@@H](n4ccc(=O)[nH]c4=O)[C@H](O)[C@@H]3O)[C@H](O)[C@H](O)[C@H]2NC(=O)/C=C/CC(C)C)O[C@H](CO)[C@@H](N)[C@@H]1O (some centres undefined)
HEK293 [5]
  Activity: Active
HEK293 [6]
  Activity: Active
HEK293 [7]
  Activity: Active

## CC(/C=C/C(=O)NO)=C\[C@@H](C)C(=O)c1ccc(N(C)C)cc1
HEK293 [8]
  Activity: Active
HEK293 [9]
  Activity: Active

## O=C(O)CCCc1ccccc1
[2]
  inhibition: 126%
[3]
  Activity: inactive

## CCC(CC)C(=O)O
[2]
  inhibition: 2.9%
[3]
  Activity: inactive
HEK293 [4]
  Activity: inactive

## CCCC(CCC)C(=O)O [VALPROIC ACID]
[2]
  inhibition: 65.2%
HEK293 [10]
  Activity: Active
HEK293 [11]
  Fold change: 2
HEK293 [12]
  Activity: Active
[13]
  Fold change: 3.5
